{"source": "ChEMBL document CHEMBL4823268", "about": "(Eur J Med Chem, 2021)", "key": {"[1]": {"target": "T1, Glycogen synthase kinase-3 beta (Homo sapiens, UniProt P49841)", "assay": "biochemical", "type": "cell-based, Sf9"}, "[2]": {"assay": "Permeability of compound by PAMPA-BBB assay"}, "Mus musculus [3]": {"tested_on": "Mus musculus", "assay": "Improvement in learning and spatial memory in mouse harboring APP/PSI/Tau assessed as improvement in trajectory at 20 mg/kg, po for 30 consecutive days and studied for 5 days by Morris water maze test relative to control", "type": "functional, organism-based", "details": "time 30.0 day"}, "Mus musculus [4]": {"tested_on": "Mus musculus", "assay": "Improvement in learning and spatial memory in mouse harboring APP/PSI/Tau assessed as improvement in trajectory at […], po for 30 consecutive days and studied for 5 days by Morris water maze test relative to control", "type": "functional, organism-based", "details": "time 5.0 day"}, "L02": {"tested_on": "L02", "assay": "Cytotoxicity against human HL7702 cells assessed as cell viability measured at 5 to 20 uM for 24 to 72 hrs by MTT assay", "type": "cell-based", "details": "l02, 20 µM, dose lower 5 µM, time lower 24 hrs, dose upper 20 µM, time upper 72 hrs"}, "Mus musculus [5]": {"tested_on": "Mus musculus", "assay": "Improvement in learning and spatial memory in mouse harboring APP/PSI/Tau assessed as decrease in escape latency at 10 to 30 mg/kg, po for 30 consecutive days and studied for 5 days by Morris water maze test relative to control", "type": "functional, organism-based", "details": "dose 10-30 mg/kg, time 30.0 day"}, "[6]": {"target": "T1, Glycogen synthase kinase-3 beta", "assay": "Inhibition of human full length GSK3beta expressed in baculovirus in Sf9 insect cells assessed as enzyme activity using YRRAAVPPSPSLSRHSSPHQ(pS)EDEEE as substrate at 0.7 uM by ADP-Glo kinase assay relative to control", "design": "scale not given: the % may be the effect or the level left"}, "SH-SY5Y": {"tested_on": "SH-SY5Y", "assay": "Reduction in neurofibrillary tangles formation in OKA-treated human SH-SY5Y cells at 250 to 1000 nM by Western blot analysis", "type": "functional, cell-based", "details": "dose 250-1000 nM"}, "[7]": {"target": "T1, Glycogen synthase kinase-3 beta", "assay": "Inhibition of human full length GSK3beta expressed in baculovirus in Sf9 insect cells assessed as enzyme activity using YRRAAVPPSPSLSRHSSPHQ(pS)EDEEE as substrate at 0.14 uM by ADP-Glo kinase assay relative to control", "design": "scale not given: the % may be the effect or the level left"}, "Mus musculus [8]": {"tested_on": "Mus musculus", "assay": "Cognitive enhancing effect in mouse harboring APP/PSI/Tau assessed as improvement in time spent in the platform quadrant at 10 to 30 mg/kg, po for 30 consecutive days and studied for 5 days by Morris water maze test relative to control", "type": "functional, organism-based", "details": "dose 10-30 mg/kg, time 30.0 day"}, "[9]": {"assay": "Neurotoxicity against human SH-SY5Y cells assessed as cell viability at 15 to 20 uM measured for 36 to 72 hrs by MTT assay", "type": "cell-based", "details": "dose lower 15 µM, time lower 36 hrs, dose upper 20 µM, time upper 72 hrs"}, "[10]": {"assay": "Neurotoxicity against human SH-SY5Y cells assessed as cell viability at 10 uM measured for 24 to 72 hrs by MTT assay", "type": "cell-based", "details": "time 24-72 hrs"}, "Mus musculus [11]": {"tested_on": "Mus musculus", "assay": "Cognitive enhancing effect in mouse harboring APP/PSI/Tau assessed as improvement in number of crossing the virtual platform at 10 to 30 mg/kg, po for 30 consecutive days and studied for 5 days by Morris water maze test relative to control", "type": "functional, organism-based", "details": "dose 10-30 mg/kg, time 30.0 day"}, "[12]": {"target": "T1, Glycogen synthase kinase-3 beta", "assay": "Inhibition of GSK3beta phosphorylation expression in human SH-SY5Y cells at 250 to 1000 nM by Western blot analysis", "type": "cell-based", "details": "dose 250-1000 nM"}, "[13]": {"target": "Dual specificity tyrosine-phosphorylation-regulated kinase 1A (Homo sapiens) (UniProt Q13627)", "assay": "Inhibition of DYRK1A in human SH-SY5Y cells assessed as decrease in OKA-induce DYRK1A-Tyr321/27 hyperphosphorylation at 250 to 1000 nM by Western blot analysis", "type": "cell-based", "details": "dose 250-1000 nM"}, "[14]": {"target": "T1, Glycogen synthase kinase-3 beta", "assay": "Inhibition of GSK3beta in human SH-SY5Y cells assessed as increase in OKA-induce GSK3beta at serine 9 hyperphosphorylation by Western blot analysis", "type": "cell-based"}, "[15]": {"target": "T1, Glycogen synthase kinase-3 beta", "assay": "Inhibition of GSK3beta in human SH-SY5Y cells assessed as decrease in OKA-induce tau-S396 hyperphosphorylation at 250 to 1000 nM by Western blot analysis", "type": "cell-based", "details": "dose 250-1000 nM"}, "[16]": {"target": "Dual specificity tyrosine-phosphorylation-regulated kinase 1A (Rattus norvegicus, UniProt Q63470)", "assay": "Inhibition of rat recombinant DYRK1A expressed in Escherichia coli using RRRFRPASPLRGPPK as substrate by ADP-Glo kinase assay"}}, "note": "pIC50: −log10 of the molar value. Activity calls are given as the source filed them. No cut-off for these calls is given here.", "data": [{"smiles": "O=C(Nc1cc2c(cn1)[nH]c1cc(C(F)(F)F)ccc12)C1CC1", "values": [{"measurement": "pIC50", "setting": "[1]", "result": "< 5.00"}]}, {"smiles": "O=C(Nc1nccc2c1[nH]c1cc(F)ccc12)C1CC1", "values": [{"measurement": "Papp", "setting": "[2]", "result": 33.3, "unit": "×10⁻⁶ cm/s"}, {"measurement": "pIC50", "setting": "[1]", "result": 5.32}]}, {"smiles": "O=C(Nc1nccc2c1[nH]c1cc(Cl)ccc12)C1CC1", "values": [{"measurement": "Papp", "setting": "[2]", "result": 21.5, "unit": "×10⁻⁶ cm/s"}, {"measurement": "pIC50", "setting": "[1]", "result": 5.29}]}, {"smiles": "O=C(Nc1nccc2c1[nH]c1cc(-c3cccnc3)ccc12)C1CC1", "values": [{"measurement": "pIC50", "setting": "[1]", "result": "< 5.00"}]}, {"smiles": "COc1ccc2c(c1)[nH]c1c(C)nccc12", "note": "[HARMINE]", "values": [{"measurement": "Activity", "setting": "Mus musculus [3]", "result": "Active"}, {"measurement": "Papp", "setting": "[2]", "result": 44.6, "unit": "×10⁻⁶ cm/s"}]}, {"smiles": "O=C(Nc1cc2c(cn1)[nH]c1cc(OC(F)(F)F)ccc12)C1CC1", "values": [{"measurement": "pIC50", "setting": "[1]", "result": "< 5.00"}]}, {"smiles": "[Cl-].[Li+]", "values": [{"measurement": "Activity", "setting": "Mus musculus [4]", "result": "Active"}]}, {"smiles": "COc1ccc(-c2ccc3c(c2)[nH]c2cnc(NC(=O)C4CC4)cc23)cc1", "values": [{"measurement": "pIC50", "setting": "[1]", "result": "< 5.00"}]}, {"smiles": "O=Cc1ccc2c(c1)[nH]c1c(NC(=O)C3CC3)nccc12", "values": [{"measurement": "Papp", "setting": "[2]", "result": 14.3, "unit": "×10⁻⁶ cm/s"}, {"measurement": "pIC50", "setting": "[1]", "result": 6.40}]}, {"smiles": "COc1ccc2c(c1)[nH]c1c(NC(=O)C3CC3)nccc12", "values": [{"measurement": "Papp", "setting": "[2]", "result": 15.6, "unit": "×10⁻⁶ cm/s"}, {"measurement": "pIC50", "setting": "[1]", "result": 6.84}]}, {"smiles": "O=C(Nc1nccc2c1[nH]c1cc(C(F)(F)F)ccc12)C1CC1", "values": [{"measurement": "pIC50", "setting": "[1]", "result": "< 5.00"}]}, {"smiles": "O=Cc1ccc2c(c1)[nH]c1cnc(NC(=O)C3CC3)cc12", "values": [{"measurement": "pIC50", "setting": "[1]", "result": "< 5.00"}]}, {"smiles": "O=C(Nc1cc2c(cn1)[nH]c1cc(-c3cccnc3)ccc12)C1CC1", "values": [{"measurement": "pIC50", "setting": "[1]", "result": "< 5.00"}]}, {"smiles": "COc1ccc(-c2ccc3c(c2)[nH]c2c(NC(=O)C4CC4)nccc23)cc1", "values": [{"measurement": "pIC50", "setting": "[1]", "result": "< 5.00"}]}, {"smiles": "Clc1cccc(Cl)c1N=C1NCCN1", "note": "[CLONIDINE]", "values": [{"measurement": "Papp", "setting": "[2]", "result": 4, "unit": "×10⁻⁶ cm/s"}]}, {"smiles": "O=C(Nc1nccc2c1[nH]c1cc(-c3ccccc3)ccc12)C1CC1", "values": [{"measurement": "pIC50", "setting": "[1]", "result": 5.18}]}, {"smiles": "COc1ccc2c(c1)[nH]c1cnc(NC(=O)C3CC3)cc12", "values": [{"measurement": "pIC50", "setting": "[1]", "result": 5.09}]}, {"smiles": "COC(=O)c1ccc2c(c1)[nH]c1c(NC(=O)C3CC3)nccc12", "values": [{"measurement": "Papp", "setting": "[2]", "result": 16.5, "unit": "×10⁻⁶ cm/s"}, {"measurement": "Activity", "setting": "L02", "result": "Toxic"}, {"measurement": "Activity", "setting": "Mus musculus [5]", "result": "Active"}, {"measurement": "Activity", "setting": "[6]", "result": 1, "unit": "%"}, {"measurement": "Activity", "setting": "SH-SY5Y", "result": "Active"}, {"measurement": "Activity", "setting": "[7]", "result": 10, "unit": "%"}, {"measurement": "Activity", "setting": "Mus musculus [8]", "result": "Active"}, {"measurement": "Activity", "setting": "[9]", "result": "Non-Toxic"}, {"measurement": "pIC50", "setting": "[1]", "result": 7.15}, {"measurement": "Activity", "setting": "[10]", "result": "Non-Toxic"}, {"measurement": "Activity", "setting": "Mus musculus [11]", "result": "Active"}, {"measurement": "Activity", "setting": "[12]", "result": "Active"}, {"measurement": "Activity", "setting": "[13]", "result": "Active"}, {"measurement": "Activity", "setting": "[14]", "result": "Dose-Dependent Effect"}, {"measurement": "Activity", "setting": "[15]", "result": "Active"}]}, {"smiles": "COC(=O)c1ccc2c(c1)[nH]c1cnc(NC(=O)C3CC3)cc12", "values": [{"measurement": "pIC50", "setting": "[1]", "result": "< 5.00"}]}, {"smiles": "N#Cc1ccc2c(c1)[nH]c1cnc(NC(=O)C3CC3)cc12", "values": [{"measurement": "pIC50", "setting": "[1]", "result": "< 5.00"}]}, {"smiles": "O=C(Nc1nccc2c1[nH]c1cc(OC(F)(F)F)ccc12)C1CC1", "values": [{"measurement": "pIC50", "setting": "[1]", "result": 5.12}]}, {"smiles": "Cn1c(=O)c2c(ncn2C)n(C)c1=O", "note": "[CAFFEINE]", "values": [{"measurement": "Papp", "setting": "[2]", "result": 3.2, "unit": "×10⁻⁶ cm/s"}]}, {"smiles": "O=C(Nc1cc2c(cn1)[nH]c1cc(Cl)ccc12)C1CC1", "values": [{"measurement": "pIC50", "setting": "[1]", "result": "< 5.00"}]}, {"smiles": "O=C(Nc1cc2c(cn1)[nH]c1cc(F)ccc12)C1CC1", "values": [{"measurement": "pIC50", "setting": "[1]", "result": "< 5.00"}]}, {"smiles": "COc1ccc2c(c1)[nH]c1cnc(C)cc12", "values": [{"measurement": "pIC50", "setting": "[1]", "result": "< 5.00"}]}, {"smiles": "N#Cc1ccc2c(c1)[nH]c1c(NC(=O)C3CC3)nccc12", "values": [{"measurement": "pIC50", "setting": "[1]", "result": "< 5.00"}]}, {"smiles": "NC(=O)c1ccc2c(c1)[nH]c1cnc(NC(=O)C3CC3)cc12", "values": [{"measurement": "pIC50", "setting": "[1]", "result": "< 5.00"}]}, {"smiles": "CN[C@@H]1C[C@H]2O[C@@](C)([C@@H]1OC)n1c3ccccc3c3c4c(c5c6ccccc6n2c5c31)C(=O)NC4", "note": "[STAUROSPORINE]", "values": [{"measurement": "pIC50", "setting": "[16]", "result": 7.92}]}, {"smiles": "NC(=O)c1ccc2c(c1)[nH]c1c(NC(=O)C3CC3)nccc12", "values": [{"measurement": "Papp", "setting": "[2]", "result": 0.7, "unit": "×10⁻⁶ cm/s"}, {"measurement": "pIC50", "setting": "[1]", "result": 6.70}]}]}
